Assay results taken from patent US10030027B2, “Soluble guanylate cyclase stimulators” (MERCK SHARP & DOHME CORP., priority 2015, dated 2018).
pEC50, pKi: −log10 of the molar value.

Tests used:
sGC α1/β1 heterodimer = sGC α1/β1 heterodimer (Homo sapiens (Human), UniProt Q02108+Q02153); assay: Cell-based sGC functional assay (cyclic GMP assay for sGC activator: CASA assay); details: CHO-K1/sGC cells; for Emax: CHO-K1, activity expressed as percentage of compound A (standard), read-out: % Activation; for pEC50: inflection point, 4P fit, read-out: IP
Method in brief: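 CHO-K1 cells stably expressing human sGC α1/β1 were pre-incubated 30 min at 25° C with or without 1 μM DETA-NO, then exposed to compound for 1 hr at 37° C with 0.5 mM IBMX and 2.5% DMSO final. Intracellular cGMP was measured by HTRF, expressed as % of reference sGC-HDA maximum; inflection point and maximum fold induction came from 4-parameter fits.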

[1] = molecular target: human recombinant sGC enzyme (Homo sapiens (Human), UniProt Q02108+Q02153); assay: Size Exclusion Chromatography (SEC) competition binding assay using [3H] Ex-77B as the radioligand; details: [3H] Ex-77B radioligand, 24 hours at 37° C.
Method in brief: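 Recombinant human sGC binding measured by competition against tritiated Ex-77B radioligand, with non-specific binding defined by 1 μM unlabeled Ex-77B.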

[2] = test system: Spontaneously hypertensive rats (SHR); assay: Acute efficacy in spontaneously hypertensive rats (SHR); type: in vivo, rat
From the text: Acute Efficacy in Spontaneously Hypertensive Rats (SHR)
Spontaneously hypertensive rats (SHR, male, Charles River) were implanted with DSI TA11PA-C40 telemetry device (Data Sciences, Inc., St. Paul, Minn.) under isoflurane or ketamine/metomidine anesthesia. The telemetry unit catheter was inserted into the descending aorta via the femoral artery and the telemetry device was implanted subcutaneously in the left flank area. Animals were allowed to recover from surgery for 14 days before the start of any studies. Blood pressure, heart rate, and activity signals from conscious, freely moving rats were recorded continuously for 30 seconds every 10 minutes. On the day prior to administration of compound, a single oral dose of vehicle (10% transcutol/20% Cremophor/70% water) was administered to all animals to establish baseline control data. The blood pressure lowering efficacy of compound (PO) or vehicle was evaluated following a single oral gavage. Data were collected as hourly averages, and changes in blood pressure were calculated by subtracting control baseline data on an hourly basis. Animals were maintained on normal diet with a 12 hour light-dark cycle.
Maximum peak decreases of systolic blood pressure (SBP) in SHR at a particular P.O. dose (mpk milligrams per kilogram) for the following Example compounds are provided.

[3] = test system: hypoxia-induced pulmonary hypertension rat; assay: Acute efficacy in hypoxia-induced pulmonary hypertension in rat following intratracheal administration; type: in vivo
From the text: Acute Efficacy in Hypoxia-Induced Pulmonary Hypertension in Rat Following Intratracheal Administration Charles River Sprague-Dawley (CD) male rats weighing approximately 350 g were implanted with HD-S21 dual pressure telemetry transmitters (Data Sciences International (DSI)) into the pulmonary artery and femoral artery. This transmitter enables simultaneous measurement of both pulmonary and systemic hemodynamic parameters in the same animal. After a 7-10 day post-operative recovery period, animals were subjected to a normobaric hypoxic (10% oxygen) environment using a Higher Peak Mountain Air Generator (MAG-10) connected to a modified rodent cage via a fitted inlet port. Oxygen (at 10%), temperature, humidity, and CO2 were controlled within normal range and animals were maintained on a 12 hour light-dark cycle with ad libitum access to food and water. After two weeks exposure to 10% O2 hypoxic environment, systolic pulmonary arterial pressure readings increased from 25 mmHg to greater than 50 mmHg. Using a 48 hour baseline average, animals with readings between 50-110 mmHg (standard deviation of less than 10 mmHg) and minimal changes in systolic systemic blood pressure were enrolled for study. Animals were utilized for up to 2 studies per week for 4 weeks with a minimum of 2 days washout between doses of test agent. Compound or vehicle was administered intra-tracheally under light isoflurane anesthesia (5% in oxygen; flow rate 2.0 L/min for 3 minutes). Once anesthetized, rats were placed on an angled intubation stand in supine position and the trachea visualized using a small laryngoscope. Animals then received either 0.5 mL/kg of vehicle or 0.5 mL/kg vehicle containing compound intra-tracheally delivered via microsprayer by use of a Penn-Century Microsprayer® needle 3″ (Model IA-1B-GP) attached to a 1 mL high pressure syringe (Penn Century-Model B-SYR-PL1000) (Penn-Century, Philadelphia, Pa.). The Microsprayer® tip was inserted into the trachea up to the point at which the bend in the needle is close to the tip of the snout, which positions the tip of the Microsprayer® in front of the carina (bifurcation of trachea at the bronchi). After dose delivery the animal is placed on its back in the home cage for recovery. Hemodynamic measurements were continuously recorded and readings consolidated to hourly moving averages. Each animal received a vehicle on Day 1 followed by vehicle or test agent on Day 2. Change from vehicle baseline was calculated by subtracting the hourly Day 1 vehicle response from the hourly Day 2 response and treatment group data was expressed as mean±SEM. Decreases of systolic blood pressure (SBP) and systolic pulmonary arterial pressure (PAP) were measured at a particular IT dose (mpk milligrams per kilogram) for the following Example compounds.

Row | SMILES | Emax (sGC α1/β1 heterodimer) [%] | pEC50 (sGC α1/β1 heterodimer) | pKi [1] | Category: maximum peak decrease of systolic blood pressure (SBP) in SHR ([2]; Dose P.O. 3 mpk) | Category: decrease in SBP (at minimum decrease in PAP of ≥15 mmHg) ([3]; Dose IT 0.1 mpk) | Category: maximum peak decrease of systolic blood pressure (SBP) in SHR ([2]; Dose P.O. 1 mpk) | Category: decrease in SBP (at minimum decrease in PAP of ≥15 mmHg) ([3]; Dose IT 0.03 mpk) | Category: decrease in SBP (at minimum decrease in PAP of ≥15 mmHg) ([3]; Dose IT 0.01 mpk) | Category: maximum peak decrease of systolic blood pressure (SBP) in SHR ([2]; Dose P.O. 0.3 mpk)
1 | C[C@@]1(c2ccc(CCC(=O)O)cc2)C(=O)Nc2nc(-c3nn(CCC(F)(F)C(F)(F)F)c4ncccc34)nc(N)c21 (single isomer, unassigned) [Example 7A] | 98 | 5.99 | 9.81 | A (decrease in SBP in SHRs 5-25 mmHg) | B (decrease in SBP 5-10 mmHg) |  |  |  | 
2 | CC(C)(Cc1csc([C@]2(C)C(=O)Nc3nc(-c4nn(CCC(F)(F)C(F)(F)F)c5ncccc45)nc(N)c32)n1)C(=O)O (single isomer, unassigned) [Example 77B] | 105 | 6.31 | 9.63 |  |  | C (decrease in SBP in SHRs>40 mmHg) | A (decrease in SBP 0-5 mmHg) |  | 
3 | CC(C)(Cc1coc(C2(C)C(=O)Nc3nc(-c4nn(CCC(F)(F)C(F)(F)F)c5cc(Cl)ccc45)nc(N)c32)n1)C(=O)O (centres unmarked) [Example 2A, 3-(2-{4-amino-2-[6-chloro-1-(3,3,4,4,4-pentafluorobutyl)-1H-indazol-3-yl]-5-methyl-6-oxo-6,7-dihydro-5H-pyrrolo[2,3-d]pyrimidin-5-yl}oxazol-4-yl)-2,2-dimethyl-propanoic acid] | 111 | 5.98 | 9.49 | A (decrease in SBP in SHRs 5-25 mmHg) |  |  | A (decrease in SBP 0-5 mmHg) |  | 
4 | C[C@@]1(c2ccc(CCC(=O)O)cc2)C(=O)Nc2nc(-c3nn(CCC(F)(F)C(F)(F)F)c4cc(F)ccc34)nc(N)c21 [Example 46B, (S)-3-(4-{4-amino-2-[6-fluoro-1-(3,3,4,4,4-pentafluorobutyl)-1H-indazol-3-yl]-5-methyl-6-oxo-6,7-dihydro-5H-pyrrolo[2,3-d]pyrimidin-5-yl}phenyl)propanoic acid] | 95 | 6.19 | 9.67 | A (decrease in SBP in SHRs 5-25 mmHg) |  |  | A (decrease in SBP 0-5 mmHg) |  | 

These reach a higher pEC50 (sGC α1/β1 heterodimer). Values come first.

Row | Emax (sGC α1/β1 heterodimer) [%] | pEC50 (sGC α1/β1 heterodimer) | pKi [1] | SMILES | Category: maximum peak decrease of systolic blood pressure (SBP) in SHR ([2]; Dose P.O. 3 mpk) | Category: decrease in SBP (at minimum decrease in PAP of ≥15 mmHg) ([3]; Dose IT 0.1 mpk) | Category: maximum peak decrease of systolic blood pressure (SBP) in SHR ([2]; Dose P.O. 1 mpk) | Category: decrease in SBP (at minimum decrease in PAP of ≥15 mmHg) ([3]; Dose IT 0.03 mpk) | Category: decrease in SBP (at minimum decrease in PAP of ≥15 mmHg) ([3]; Dose IT 0.01 mpk) | Category: maximum peak decrease of systolic blood pressure (SBP) in SHR ([2]; Dose P.O. 0.3 mpk)
5 | 117 | 6.34 | 9.82 | C[C@@]1(c2ccc(CCC(=O)O)cc2)C(=O)Nc2nc(-c3nn(CCC(F)(F)C(F)(F)F)c4cc(Cl)ccc34)nc(N)c21 [Example 10B, (S)-3-(4-{4-Amino-2-[6-chloro-1-(3,3,4,4,4-pentafluorobutyl)-1H-indazol-3-yl]-5-methyl-6-oxo-6,7-dihydro-5H-pyrrolo[2,3-d]pyrimidin-5-yl}phenyl)propanoic acid] | A (decrease in SBP in SHRs 5-25 mmHg) |  |  |  | A (decrease in SBP 0-5 mmHg) | 
6 | 93 | 6.44 | 10.19 | C[C@@]1(c2ccc(CCC(=O)O)cc2)C(=O)Nc2nc(-c3nn(Cc4ccccc4F)c4ncccc34)nc(N)c21 [Example 21B, (S)-3-(4-{4-amino-2-[1-(2-fluorobenzyl)-1H-pyrazolo[3,4-b]pyridin-3-yl]-5-methyl-6-oxo-6,7-dihydro-5H-pyrrolo[2,3-d]pyrimidin-5-yl}phenyl)propanoic acid] | A (decrease in SBP in SHRs 5-25 mmHg) |  |  | A (decrease in SBP 0-5 mmHg) |  | 
7 | 113 | 6.89 | 9.78 | CC(C)(Cc1csc(C2(C)C(=O)Nc3nc(-c4nn(CCC(F)(F)C(F)(F)F)c5ncc(F)cc45)nc(N)c32)n1)C(=O)O (centres unmarked) [Example 84A, 3-(2-{4-amino-2-[5-fluoro-1-(3,3,4,4,4-pentafluorobutyl)-1H-pyrazolo[3,4-b]pyridin-3-yl]-5-methyl-6-oxo-6,7-dihydro-5H-pyrrolo[2,3-d]pyrimidin-5-yl}-1,3-thiazol-4-yl)-2,2-dimethylpropanoic acid] |  |  | C (decrease in SBP in SHRs>40 mmHg) | A (decrease in SBP 0-5 mmHg) |  | 
8 | 111 | 6.66 | 9.76 | CC(C)(Cc1csc([C@]2(C)C(=O)Nc3nc(-c4nn(CCC(F)(F)C(F)(F)F)c5cc(Cl)ccc45)nc(N)c32)n1)C(=O)O [Example 92B, (S)-3-(2-{4-amino-2-[6-chloro-1-(3,3,4,4,4-pentafluorobutyl)-1H-indazol-3-yl]-5-methyl-6-oxo-6,7-dihydro-5H-pyrrolo[2,3-d]pyrimidin-5-yl}-1,3-thiazol-4-yl)-2,2-dimethylpropanoic acid] |  |  |  | A (decrease in SBP 0-5 mmHg) |  | A (decrease in SBP in SHRs 5-25 mmHg)
9 | 62.3 | 6.46 | 10.17 | CC(C)(Cc1coc(C2(C)C(=O)Nc3nc(-c4nn(Cc5ccccc5F)c5cc(Cl)ccc45)nc(N)c32)n1)c1nn[nH]n1 (centres unmarked) [Example 239A, 4-amino-2-[6-chloro-1-(2-fluorobenzyl)-1H-indazol-3-yl]-5-methyl-5-{4-[2-methyl-2-(2H-tetrazol-5-yl)propyl]-1,3-oxazol-2-yl}-5,7-dihydro-6H-pyrrolo[2,3-d] pyrimidin-6-one] |  |  |  |  | A (decrease in SBP 0-5 mmHg) | 
